These results are taken from ChEMBL document CHEMBL1149781, “New glycosidic derivatives of histidine-containing dipeptides with antioxidant properties and resistant to carnosinase activity” (Eur J Med Chem, 2008).

Format in all cases: functional
Assay [1] can be described thus: Antioxidant activity against copper-induced lipid peroxidation in human LDL assessed as inhibition of malondialdehyde formation.
A short description of assay [2]: Antioxidant activity against copper-induced lipid peroxidation in human LDL assessed as inhibition of malondialdehyde formation at 10 uM relative to control. On the set-up: scale not given: the % may be the effect or the level left.
Assay [3] in a line: Antioxidant activity against copper-induced lipid peroxidation in human LDL assessed as inhibition of malondialdehyde formation at 2 uM relative to control. On the set-up: scale not given: the % may be the effect or the level left.
Assay [4] can be described thus: Antioxidant activity against copper-induced lipid peroxidation in human LDL assessed as inhibition of malondialdehyde formation at 200 uM relative to control. Details: scale not given: the % may be the effect or the level left.
A short description of assay [5]: Antioxidant activity against copper-induced lipid peroxidation in human LDL assessed as inhibition of malondialdehyde formation at 5 uM relative to control. On the set-up: scale not given: the % may be the effect or the level left.
Assay [6] is described as follows: Antioxidant activity against copper-induced lipid peroxidation in human LDL assessed as inhibition of malondialdehyde formation at 100 uM relative to control. Details: scale not given: the % may be the effect or the level left.
Assay [7] is described as follows: Antioxidant activity against copper-induced lipid peroxidation in human LDL assessed as inhibition of malondialdehyde formation at 20 uM relative to control. Details: scale not given: the % may be the effect or the level left.
The nature of assay [8]: Antioxidant activity against copper-induced lipid peroxidation in human LDL assessed as inhibition of malondialdehyde formation at 50 uM relative to control. On the set-up: scale not given: the % may be the effect or the level left.

In the case of `Cn1cncc1CC(NC(=O)CCN[C@@H]1[C@@H](O)[C@H]2O[C@H]3[C@H](O)[C@@H](O)[C@@H](O[C@H]4[C@H](O)[C@@H](O)[C@@H](O[C@H]5[C@H](O)[C@@H](O)[C@@H](O[C@H]6[C@H](O)[C@@H](O)[C@@H](O[C@H]7[C@H](O)[C@@H](O)[C@@H](O[C@H]8[C@H](O)[C@@H](O)[C@@H](O[C@@H]1[C@@H](CO)O2)O[C@@H]8CO)O[C@@H]7CO)O[C@@H]6CO)O[C@@H]5CO)O[C@@H]4CO)O[C@@H]3CO)C(=O)O` (some centres not stated), in assay [1], the IC50 was 41.6 µM.

Consider `O=C(CCN[C@@H]1[C@@H](O)[C@H]2O[C@H]3[C@H](O)[C@@H](O)[C@@H](O[C@H]4[C@H](O)[C@@H](O)[C@@H](O[C@H]5[C@H](O)[C@@H](O)[C@@H](O[C@H]6[C@H](O)[C@@H](O)[C@@H](O[C@H]7[C@H](O)[C@@H](O)[C@@H](O[C@H]8[C@H](O)[C@@H](O)[C@@H](O[C@@H]1[C@@H](CO)O2)O[C@@H]8CO)O[C@@H]7CO)O[C@@H]6CO)O[C@@H]5CO)O[C@@H]4CO)O[C@@H]3CO)NC(Cc1cnc[nH]1)C(=O)O` (some centres not stated), for which the half-inhibitory concentration (IC50) in assay [1] turned out to be 23.4 µM.

Take `Cn1cncc1CC(NC(=O)CCNC[C@H]1O[C@@H]2O[C@H]3[C@H](O)[C@@H](O)[C@@H](O[C@H]4[C@H](O)[C@@H](O)[C@@H](O[C@H]5[C@H](O)[C@@H](O)[C@@H](O[C@H]6[C@H](O)[C@@H](O)[C@@H](O[C@H]7[C@H](O)[C@@H](O)[C@@H](O[C@H]8[C@H](O)[C@@H](O)[C@@H](O[C@H]1[C@H](O)[C@H]2O)O[C@@H]8CO)O[C@@H]7CO)O[C@@H]6CO)O[C@@H]5CO)O[C@@H]4CO)O[C@@H]3CO)C(=O)O` (some centres not stated): the IC50 in assay [1] was 88.7 µM.

On to `OC[C@H]1O[C@@H]2O[C@H]3[C@H](O)[C@@H](O)[C@@H](O[C@H]4[C@H](O)[C@@H](O)[C@@H](O[C@H]5[C@H](O)[C@@H](O)[C@@H](O[C@H]6[C@H](O)[C@@H](O)[C@@H](O[C@H]7[C@H](O)[C@@H](O)[C@@H](O[C@H]8[C@H](O)[C@@H](O)[C@@H](O[C@H]1[C@H](O)[C@H]2O)O[C@@H]8CO)O[C@@H]7CO)O[C@@H]6CO)O[C@@H]5CO)O[C@@H]4CO)O[C@@H]3CO`, for which the Activity was 0.65% in assay [2]; 0.11% in assay [3]; 10.7% in assay [4]; 0.38% in assay [5]; 6.94% in assay [6]; 1.26% in assay [7]. Moreover, the Activity in assay [8] was found to be 3.87%.

Turning to `Cn1cncc1C[C@H](NC(=O)CCN)C(=O)O`, the Activity in assay [2] was found to be 1.05%; in assay [3], 0.23%; in assay [4], 18.7%; in assay [5] it was 0.51%; in assay [6] it was 12.2%; in assay [7], 2.14%. The Activity in assay [8] amounted to 8.55%.

For orientation: IC50 means the concentration at which inhibition is half-maximal.
